{"source": "patent US11576905B2", "about": "“Topical semisolid composition containing an antimicrobial agent and pirfenidone for the treatment of chronic skin damage” (Excalibur Pharmaceuticals, Inc., priority 2017, dated 2023)", "key": {"COL1α": {"system": "COL1α", "test": "COL1α gene expression in ulcer tissue biopsies of treated patients", "assay_type": "in vivo, human", "conditions": "first month of treatment"}, "TGFβ1": {"system": "TGFβ1", "test": "TGFβ1 gene expression in ulcer tissue biopsies of treated patients", "assay_type": "in vivo, human", "conditions": "first month of treatment"}}}
{"molecule": "O=C(c1ccc(F)cc1)C1CCN(CCn2c(=O)[nH]c3ccccc3c2=O)CC1", "note": "[KTS, Ketanserin]", "values": [{"measurement": "Patients showing an increase in COL1α expression", "setting": "COL1α", "result": 43, "unit": "%"}, {"measurement": "Patients showing an increase in TGFβ1 gene expression", "setting": "TGFβ1", "result": 29, "unit": "%"}]}
